Reference: patent publication US9877999B2, “Methods for treating metastatic stage prostate cancer” (Ferring International SA, priority 2008, dated 2018)
Square brackets hold non-standard residues; d marks the D form. Peptide text beside a SMILES is read from it. * marks the point of attachment. dPhe(4-NHCONH2) = NC(=O)Nc1ccc(C[C@@H](N)C(=O)O)cc1; Dihydroorotyl(S) = O=C1C[C@@H](C(=O)*)NC(=O)N1; dPhe(4-Cl) = N[C@H](Cc1ccc(Cl)cc1)C(=O)O; Phe(4-NH2) = Nc1ccc(C[C@H](N)C(=O)O)cc1; d2Nal = N[C@H](Cc1ccc2ccccc2c1)C(=O)O; Lys(iPr) = CC(C)NCCCC[C@H](N)C(=O)O; d3Pal = N[C@H](Cc1cccnc1)C(=O)O

System: serum alkaline phosphatase (S-ALP)
Assay: S-ALP analysis in prostate cancer patients (clinical study CS21)
Assay type: in vivo, human
Conditions: Degarelix 240/80 mg
Experimental: Patients with histologically confirmed adenocarcinoma of the prostate (all stages), for whom androgen deprivation therapy was indicated were recruited. Baseline characteristics were well balanced between groups. Approximately half of patients had locally advanced (29.2%) or metastatic (20.5%) disease at baseline. […] Patients receiving leuprolide could also receive bicalutamide for clinical flare protection. The S-ALP levels were measured in each patient at various time points, by taking a blood sample and analyzing for S-ALP. S-ALP levels were measured using a standardized colorimetric assay based on the p-nitrophenyl phosphate AMP buffer method. The normal range for S-ALP is 44-147 IU/L. The S-ALP values in non-metastatic patients serve as controls. An ANOVA analysis with treatment and day as factors and baseline value as covariate was used to determine between treatment differences at Day 364. A repeated measures analysis (incorporating all time points from Day 112) with treatment and day as factors and baseline value as covariate was used to assess between treatment differences from Day 112 to Day 364.

SMILES: CC(=O)N[C@H](Cc1ccc2ccccc2c1)C(=O)N[C@H](Cc1ccc(Cl)cc1)C(=O)N[C@H](Cc1cccnc1)C(=O)N[C@@H](CO)C(=O)N[C@@H](Cc1ccc(NC(=O)[C@@H]2CC(=O)NC(=O)N2)cc1)C(=O)N[C@H](Cc1ccc(NC(N)=O)cc1)C(=O)N[C@@H](CC(C)C)C(=O)N[C@@H](CCCCNC(C)C)C(=O)N1CCC[C@H]1C(=O)N[C@H](C)C(N)=O [degarelix, D-Alaninamide, N-acetyl-3-(2-naphthalenyl)-D-alanyl-4-chloro-D-phenylalanyl-3-(3-pyridinyl)-D-alanyl-L-seryl-4-[[[(4S)-hexahydro-2,6-dioxo-4-pyrimidinyl]carbonyl]amino]-L phenylalanyl-4-[(aminocarbonyl)amino]-D-phenylalanyl-L leucyl-N6-(1-methylethyl)-L-lysyl-L-prolyl] (Ac-[d2Nal][dPhe(4-Cl)][d3Pal]S[Phe(4-NH2)](Dihydroorotyl(S))[dPhe(4-NHCONH2)]L[Lys(iPr)]P[dA]-NH2)
- S-ALP mean change from baseline (Localized, Day 112): +5 IU/L
- S-ALP mean change from baseline (Localized, Day 224): +8 IU/L
- S-ALP mean change from baseline (Localized, Day 364): +10 IU/L
- S-ALP mean change from baseline (Locally advanced, Day 112): +6 IU/L
- S-ALP mean change from baseline (Locally advanced, Day 224): +7 IU/L
- S-ALP mean change from baseline (Locally advanced, Day 364): +10 IU/L
- S-ALP mean change from baseline (Metastatic (Hb < 130 g/L), Day 112): −160 IU/L
- S-ALP mean change from baseline (Metastatic (Hb < 130 g/L), Day 224): −200 IU/L
- S-ALP mean change from baseline (Metastatic (Hb < 130 g/L), Day 364): −230 IU/L
- S-ALP mean change from baseline (Metastatic, Day 112): −90 IU/L
- S-ALP mean change from baseline (Metastatic, Day 224): −100 IU/L
- S-ALP mean change from baseline (Metastatic, Day 364): −90 IU/L
- S-ALP mean change from baseline (baseline PSA 10-20 ng/mL, Day 112): +5 IU/L
- S-ALP mean change from baseline (baseline PSA 10-20 ng/mL, Day 224): +8 IU/L
- S-ALP mean change from baseline (baseline PSA 10-20 ng/mL, Day 364): +13 IU/L
- S-ALP mean change from baseline (baseline PSA 20-50 ng/mL, Day 112): +5 IU/L
- S-ALP mean change from baseline (baseline PSA 20-50 ng/mL, Day 224): +7.5 IU/L
- S-ALP mean change from baseline (baseline PSA 20-50 ng/mL, Day 364): +4.5 IU/L
- S-ALP mean change from baseline (baseline PSA < 10 ng/mL, Day 112): +4.5 IU/L
- S-ALP mean change from baseline (baseline PSA < 10 ng/mL, Day 224): +5.5 IU/L
- S-ALP mean change from baseline (baseline PSA < 10 ng/mL, Day 364): +7 IU/L
- S-ALP mean change from baseline (baseline PSA > 50 ng/mL, Day 112): −60 IU/L
- S-ALP mean change from baseline (baseline PSA > 50 ng/mL, Day 224): −70 IU/L
- S-ALP mean change from baseline (baseline PSA > 50 ng/mL, Day 364): −60 IU/L
